Columns and labels:
[1] = test system: kidney inflammation, ED-1 reactivity (macrophage activation); test: Acute kidney injury model (stab wound plus cautery), ED-1 immunohistochemistry; type: in vivo, Sprague-Dawley rat; settings: rat kidney, 3% solution of EARA-16 or 1% solution of KS
Protocol: The anti-inflammatory effects of EARA-16 (SEQ ID NO: 89) and a RADA-kidney specific peptide conjugate (Ac-(RADA)3CVSVPQAL-CONH2; SEQ ID NO: 413; referred to as KS) were examined. Specifically, the effects of EARA-16 and KS on inflammation caused by burn damage were examined using an acute kidney injury model. Levels of inflammation were assayed through immuno-histochemical ED-1 reactivity (ED-1 serves as a marker of macrophage activation).
Adult Sprague-Dawley rats were anesthetized and their intraperitoneal cavities were opened under aseptic conditions. For each animal, the kidney was exposed and then subjected to a stab wound injury.
Cautery was then performed at the injury site to stop bleeding. After cauterization, the injury site was either left untreated and the animals were closed or the site was treated with a 3% solution of EARA-16 (SEQ ID NO: 89) or a 1% solution of KS (SEQ ID NO: 413). The animals were allowed to survive for up to 14 days. The animals were then sacrificed and their kidneys were harvested and sectioned. An ED-1 antibody was used to determine the level of inflammation and activation of macrophages in the kidney via immunohistochemistry (IHC). For each experimental condition, n=3 (max).
Animals receiving no injury, but in which saline was applied to the kidney in a similar location to that of the experimental animals, were used as controls (n=8).

[2] = test system: liver inflammation, ED-1 reactivity (macrophage activation); test: Rat liver injury model (punch biopsy), ED-1 immunohistochemistry; type: in vivo, Sprague-Dawley rat; settings: 4 mm punch biopsy, all time-points observed, compared to saline or acid controls
Protocol: (§1) The anti-inflammatory effects of EARA-16 (SEQ ID NO: 89) and RADA-16 (SEQ ID NO: 1) SAPs were examined using a liver injury model. Levels of inflammation were assayed through immuno-histochemical ED-1 reactivity (ED-1 serves as a marker of macrophage activation).
(§2) Pigs or adult Sprague-Dawley rats were anesthetized and their intraperitoneal cavities were opened under aseptic conditions. For each animal, the liver was exposed and then subjected to an 8 mm (pig) or 4 mm (rat) punch biopsy.
(§3) The punch sites were then cauterized or treated with acid (for pH control), saline, or RADA-16 (SEQ ID NO: 1) or EARA-16 (SEQ ID NO: 89) solutions. The animals were allowed to survive for up to 14 days. The animals were then sacrificed and their livers were harvested and sectioned. An ED-1 antibody was used to determine the level of inflammation and activation of macrophages in the liver via immunohistochemistry (IHC).

[3] = test system: olfactory bulb inflammation, GFAP (reactive astrocytes); test: Olfactory bulb injury model (transection), GFAP immunohistochemistry; type: in vivo, Sprague-Dawley rat; settings: rat olfactory bulb, days 2-14
Protocol: The anti-inflammatory effects of EARA-16 (SEQ ID NO: 89) and RADA-16 (SEQ ID NO: 1) were examined using an olfactory bulb injury model. Levels of inflammation were assayed through immunohistochemical staining for glial fibrillary acidic protein (GFAP) as an indicator of reactive astrocytes.
In brief, the olfactory bulbs of adult Sprague-Dawley rats were unilaterally transected and the cuts were then treated with either saline as a control, or one of RADA-16 (SEQ ID NO: 1) or EARA-16 (SEQ ID NO: 89) solutions (each used at 1% and 3%). The SAP materials were injected into the cuts post transection at the time of surgery. After 2, 7 or 14 days, the animals were sacrificed.
A more detailed protocol is as follows: adult Sprague-Dawley rats were anesthetized with a mixture of ketamine (80 mg/kg, i. p.) and xylazine (8 mg/kg, i. p.). The head was shaved and a thorough disinfection of the head surface was carried out with iodine 5% solution. The bilateral olfactory bulbs were exposed by drilling two burr holes (2 mm diameter, 8 mm anterior to the bregma) on either side at a distance of 2 mm from the midline of the frontal bone in the region overlying the olfactory bulbs. A cataract knife with a blunted end and one sharpened edge was used for surgery. The cut was performed on the middle of olfactory bulb. The blunted edge of the knife was inserted along the middle line of the olfactory bulb to prevent damage of the sagittal sinus, until the tip of the knife lightly touched the bottom of the brain without penetration of the dura. The knife was then moved laterally to transect the bulb until it reached the lateral edge of the hole. The knife was then rotated and pulled out to have a complete cut of the bulb at lateral side. This procedure was modified from the method described in several previous studies attempting to isolate the olfactory bulb from other parts of the brain (Ahrens & Freeman 2001; Allison 1953; Chaput 1983; Freeman 1968; Koliatsos et al 2004; Munirathinam et al 1997).
After performing the cut, one of the solutions was used to treat the injury site: either 10 μl saline (control group) or the EARA-16 (SEQ ID NO: 89) or RADA-16 (SEQ ID NO: 1) SAP (at a concentration of 1% and 3%) was injected evenly into the wound site using a self-constructed hydraulic pressure injection system without micro syringe. This technique was modified from similar methods as described by Bullier and others (Bullier et al 1980; Fish & Rhoades 1981; Kratskin et al 1997; Meyers & Snow 1981; Price et al 1977; Shipley 1982). Care was taken to control the speed of the injection of the saline or the SAP. After the injection, the wound was closed and the animals were placed in a warm place for recovery before they were brought back to their home cages. […]

[4] = test system: liver inflammation, ED-1 reactivity (macrophage activation); test: Pig liver injury model (punch biopsy), ED-1 immunohistochemistry; type: in vivo; settings: 8 mm punch biopsy, day 7 post-treatment, compared to saline or cauterization controls
Protocol: as §1, §2, §3

Substance: Ac-(RADA)3CVSVPQAL-CONH2 (Ac-RADARADARADACVSVPQAL-NH2) [KS, RADA-kidney specific peptide conjugate]
- reduction in inflammation compared to cautery only (ED-1 IHC) ([1]; 7-day survival): 68%
- reduction in inflammation compared to cautery only (ED-1 IHC) ([1]; 14-day survival): 66%

Substance: EARAEARAEARAEARA [EARA-16, self-assembling peptide]
- levels of inflammation in liver (ED-1 IHC) [2]: markedly reduced the levels of inflammation
- time course of reactive astrocyte activation / inflammation (GFAP) ([3]; 1% solution): increased activation of reactive astrocytes on day 7 which subsequently reduced by day 14
- time course of reactive astrocyte activation / inflammation (GFAP) ([3]; 3% solution): increasing inflammation levels, but at a much slower rate than the saline controls
- levels of inflammation in liver (ED-1 IHC) [4]: markedly reduced the levels of inflammation
- reduction in inflammation compared to cautery only (ED-1 IHC) ([1]; 7-day survival): 80%
- reduction in inflammation compared to cautery only (ED-1 IHC) ([1]; 14-day survival): 66%
